Results from patent publication US20090099167A1, “Organic compounds” (Novartis Institutes for Biomedical Research, priority 2004, published 2009).
Where two headings read alike, the source gives them in different places.

Columns and labels:
Cdk1/cycB = Cdk1/cycB (UniProt P06493); test: Cdk1/cycB kinase assay, histone H1 substrate; assay type: biochemical, starfish; settings: Table 4; read-out: Cdk1, activity (IC50 for kinase inhibition)
Experimental: The inhibition of Cdk1 can be determined as follows: Cdk1/cycB: Cdk1/cycB are obtained from ProQinase, Freiburg, Germany. Starfish oocytes are induced to enter M phase of the cell cycle with 10 μM 1-methyladenine and frozen in liquid nitrogen and stored at −80° C. […] Briefly, the supernatant from oocytes is equilibrated for 30 min at 4° C. under constant rotation with the p9^CKShs-sepharose beads. The beads are extensively washed and active cdk1/cycB kinase is eluted with purified p9^CKShs (3 mg/ml). […] The assay is carried with slight modifications in 96-well plates at ambient temperature for 20 min. […] The reaction is terminated by addition of 25 μl 0.05 M EDTA pH 7.0. An aliquot of 40 μl is spotted with a multichannel dispenser on Immobilon P membranes mounted in a Millipore Microtiter filter manifold connected to a low vacuum source. After elimination of liquid, the membrane is transferred to a sequence of 4 washing baths containing 0.5% H3PO4 and one with EtOH (shaking incubation for 10 min each), dried, mounted onto a Hewlett Packard TopCount manifold added 10 μl Microscint® and counted. […] Cells were seeded at 2.5×10^7 cells per 150 mm dish and allowed to attach to a 150 mm dish for 1 hr at RT. Media (SF900II containing 10% FBS) is aspirated and recombinant baculovirus; GST-C-Raf-1, v-Ras and v-Src are added at MOI of 3.0, 2.5 and 2.5 receptively in a total volume of 4-5 mL. Cells are incubated for 1 hr at RT and then 15 mL of medium is added. Infected cells are incubated for 48-72 hr at 27° C. Infected Sf21 cells are scraped and collected into a 50 mL tube and centrifuged for 10 min at 4° C. at 1100 g in a Sorvall centrifuge. The cell pellet is washed once with ice cold PBS and lysed with 0.6 mL lysis buffer per 2.5×10^7 cells. Complete lysis of cells is achieved after 10 min on ice with occasional pipetting. […] GST-c-Raf-1 was allowed to bind to the beads at 4° C. for 1 hr with rocking. Bound GST-c-Raf-1 with beads was transferred to a column. The column is washed once with lysis buffer and twice with ice cold Tris buffered saline. Ice cold elution buffer is added and column flow is stopped to allow the free glutathione to disrupt the interaction of GST-c-Raf-1 with glutathione sepharose beads. Fractions (1 mL) are collected into pre-chilled tubes. Each tube contains 10% glycerol (final concentration) to maintain kinase activity during freeze thaw cycles. Purified fractions of GST-c-Raf-1 kinase protein are stored at −80° C.

human EphB4 receptor = target: T1, human EphB4 receptor (Homo sapiens, UniProt P54760); test: EphB4 kinase assay, GST-EphB, 33P incorporation into poly(Glu,Tyr); assay type: biochemical
T1 construct: made in house; host or cells: Sf9 or Sf21 (baculovirus)
T1 sequence (P54760 566-987): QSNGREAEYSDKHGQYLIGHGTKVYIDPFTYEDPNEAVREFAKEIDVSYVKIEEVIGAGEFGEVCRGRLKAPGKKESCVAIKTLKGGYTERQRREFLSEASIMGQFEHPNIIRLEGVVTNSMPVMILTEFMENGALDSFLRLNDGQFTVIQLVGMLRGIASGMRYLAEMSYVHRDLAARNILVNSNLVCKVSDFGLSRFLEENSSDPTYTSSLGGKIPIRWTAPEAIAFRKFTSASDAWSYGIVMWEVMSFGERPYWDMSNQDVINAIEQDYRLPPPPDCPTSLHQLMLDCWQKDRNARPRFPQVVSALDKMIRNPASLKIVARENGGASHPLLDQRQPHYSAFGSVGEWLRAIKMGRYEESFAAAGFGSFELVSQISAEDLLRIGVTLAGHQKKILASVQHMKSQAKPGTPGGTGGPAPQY
Excerpt: EphB4: Production and measure of enzymatic activity: Generation of Bac-to-Bac™ (Initrogen Life Technologies, Basel, Switzerland) GST-fusion expression vectors: Entire cytoplasmatic coding regions of the EphB-class are amplified by PCR from cDNA libraries derived from human placenta or brain, respectively. Recombinant baculovirus are generated that express the amino acid region 566-987 of the human EphB4 receptor (SwissProt Database, Accession No. P54760). GST sequence is cloned into pFastBac1® vector (Invitrogen Life Technologies, Basel, Switzerland) and PCR amplified. cDNAs encoding EphB4-receptor domains, respectively, are cloned in frame 3′prime to the GST sequence into this modified FastBac1 vector to generate pBac-to-Bac™ donor vectors. Single colonies arising from the transformation are inoculated to give overnight cultures for small scale plasmid preparation. […] By automated sequencing the inserts and approximately 50 bp of the flanking vector sequences are confirmed on both strands. Production of viruses: Viruses for each of the kinases are made according to the protocol supplied by GIBCO if not stated otherwise. In brief, transfer vectors containing the kinase domains are transfected into the DH10Bac cell line (GIBCO) and plated on selective agar plates. Colonies without insertion of the fusion sequence into the viral genome (carried by the bacteria) are blue. Single white colonies are picked and viral DNA (bacmid) isolated from the bacteria by standard plasmid purification procedures. Sf9 cells or Sf21 cells are then transfected in 25 cm2 flasks with the viral DNA using Cellfectin reagent according to the protocol. Purification of GST-tagged kinases: The centrifuged cell lysate is loaded onto a 2 mL glutathione-sepharose column (Pharmacia) and washed three times with 10 mL of 25 mM Tris-HCl, pH 7.5, 2 mM EDTA, 1 mM DTT, 200 mM NaCl. The GST-tagged proteins are then eluted by 10 applications (1 mL each) of 25 mM Tris-HCl, pH 7.5, 10 mM reduced-glutathione, 100 mM NaCl, 1 mM DTT, 10% Glycerol and stored at −70° C. Protein kinase assays: The activities of protein kinases are assayed in the presence or absence of inhibitors, by measuring the incorporation of 33P from [γ33P]ATP into a polymer of glutamic acid and tyrosine (poly(Glu,Tyr)) as a substrate. The kinase assays with purified GST-EphB (30 ng) are carried out for 15-30 min at ambient temperature in a final volume of 30 μL containing 20 mM Tris.HCl, pH 7.5, 10 mM MgCl2, 3-50 mM MnCl2, 0.01 mM Na3VO4, 1% DMSO, 1 mM DTT, 3 μg/mL poly(Glu,Tyr) 4:1 (Sigma; St. Louis, Mo., USA) and 2.0-3.0 μM ATP (γ-[33P]-ATP 0.1 μCi). The assay is terminated by the addition of 20 μL of 125 mM EDTA. Subsequently, 40 μl of the reaction mixture are transferred onto Immobilon-PVDF membrane (Millipore, Bedford, Mass., USA) previously soaked for 5 min with methanol, rinsed with water, then soaked for 5 min with 0.5% H3PO4 and mounted on vacuum manifold with disconnected vacuum source. After spotting all samples, vacuum is connected and each well rinsed with 200 μl 0.5% H3PO4. Membranes are removed and washed 4× on a shaker with 1.0% H3PO4, once with ethanol. Membranes are counted after drying at ambient temperature, mounting in Packard TopCount96-well frame, and addition of 10 μL/well of Microscint™ (Packard). IC50 values are calculated by linear regression analysis of the percentage inhibition of each compound in duplicate, at four concentrations (usually 0.01, 0.1, 1 and 10 μM). One unit of protein kinase activity is defined as 1 nmole of 33P ATP transferred from [γ33P] ATP to the substrate protein per minute per mg of protein at 37° C. Compounds of formula I show EphB4 inhibition down to 10 nM, preferably IC50 values between 0.01-1.0 μM.

Structure (SMILES)	melting point [°C]	also measured
COc1cccc(-c2cnc3c(-c4ccc(N5CCN(C)CC5)cc4)cnn3c2N)c1 [Example 2, 6-(3-Methoxy-phenyl)-3-[4-(4-methyl-piperazin-1-yl)-phenyl]-pyrazolo[1,5-a]pyrimidin-7-ylamine]	–	IC50 (Cdk1/cycB): < 10 µM
CN(C)c1ccc(-c2cnn3c(N)c(-c4ccc(NS(=O)(=O)c5cccc(Cl)c5Cl)cc4)cnc23)cc1 [Example 10, N-{4-[7-Amino-3-(4-dimethylamino-phenyl)-pyrazolo[1,5-a]pyrimidin-6-yl]-phenyl}-2,3-dichloro-benzenesulfonamide]	143 to 146	–
CN(C)c1ccc(-c2cnn3c(N)c(-c4ccc(OS(=O)(=O)c5ccc(Cl)cc5)cc4)cnc23)cc1 [Example 11, 4-Chloro-benzenesulfonic acid 4-[7-amino-3-(4-dimethylamino-phenyl)-pyrazolo[1,5-a]pyrimidin-6-yl]-phenyl ester]	186 to 188	–
CN1CCN(c2cccc(-c3cnn4c(N)c(-c5ccccc5O)cnc34)c2)CC1 [Example 37, 2-{7-Amino-3-[3-(4-methyl-piperazin-1-yl)-phenyl]-pyrazolo[1,5-a]pyrimidin-6-yl}-phenol]	–	IC50 (Cdk1/cycB): < 10 µM
Cn1cc(-c2cnn3c(N)c(-c4cccc(O)c4)cnc23)c2ccccc21 [Example 45, 3-[7-Amino-3-(1-methyl-1H-indol-3-yl)-pyrazolo[1,5-a]pyrimidin-6-yl]-phenol]	–	IC50 (human EphB4 receptor; Table 4, read-out: EphB4, activity (IC50 for kinase inhibition)): < 10 µM
CCN(CC)C1CCN(c2cccc(-c3cnn4c(N)c(-c5ccc(F)cc5)c(C)nc34)c2)CC1 [Example 105, 3-[3-(4-Diethylamino-piperidin-1-yl)-phenyl]-6-(4-fluoro-phenyl)-5-methyl-pyrazolo[1,5-a]pyrimidin-7-ylamine]	208 to 210	–

Continued, in another order:

melting point [°C]	Structure (SMILES)	also measured
116 to 121	COc1ccc(N2CCN(C)CC2)cc1-c1cnn2c(N)c(-c3cccc(Cl)c3)c(C)nc12 [Example 74, 6-(3-Chloro-phenyl)-3-[2-methoxy-5-(4-methyl-piperazin-1-yl)-phenyl]-5-methyl-pyrazolo[1,5-a]pyrimidin-7-ylamine]	IC50 (human EphB4 receptor; Table 5, read-out: EphB4, IC50 class): < 1 µM
163 to 168	CCN(CC)C1CCN(c2cccc(-c3cnn4c(N)c(-c5cccc(Cl)c5)c(C)nc34)c2)CC1 [Example 104, 6-(3-Chloro-phenyl)-3-[3-(4-diethylamino-piperidin-1-yl)-phenyl]-5-methyl-pyrazolo[1,5-a]pyrimidin-7-ylamine]	–
